Laboratory results reported in patent publication US12398154B2, “Azaquinazoline pan-KRas inhibitors” (Mirati Therapeutics, Inc., priority 2020, dated 2025).

Legend:
[1] = biological target: KRas G12V (Homo sapiens, UniProt P01116, G12V); experiment: biochemical;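 further: KRas binding measured by TR-FRET displacement at room temperature, IC50 fitted from percent of control values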
Procedure: (§2) The ability of a compound to bind to KRas was measured using a TR-FRET displacement assay. […] After a 60-minute incubation at room temperature, the reaction was measured using a BMG LABTECH CLARIO star Plus via TR-FRET. […] The POC values were fit to a 4-parameter IC50 equation and the IC50 value reported.

[2] = biological target: KRas G12D (Homo sapiens, UniProt P01116, G12D); experiment: biochemical;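 further: TR-FRET displacement binding assay on KRas, read after a one-hour incubation at room temperature, IC50 fitted from percent-of-control values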
Procedure: as §2

[3] = test system: phospho-ERK in HCT116 (G13D) cells; experiment: Inhibition of KRas-mediated phosphorylation of ERK (in-cell western); assay type: cell-based; conditions: Homo sapiens, HCT-116, 3 hours compound, phospho-ERK normalized to GAPDH
Outline: (§1)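 After a 3-hour incubation with diluted compound in 0.5% DMSO, cells are fixed, permeabilized and stained overnight at 4° C for phosphorylated ERK and GAPDH.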

[4] = test system: phospho-ERK in PSN-1 (G12R) cells; experiment: as above; assay type: cell-based; conditions: Homo sapiens, PSN1, 3 hours compound, phospho-ERK normalized to GAPDH
Outline: as §1

[5] = test system: phospho-ERK in MKN1 (WTdep) cells; experiment: as above; assay type: cell-based; conditions: Homo sapiens, MKN-1, 3 hours compound, phospho-ERK normalized to GAPDH
Outline: as §1

[6] = test system: phospho-ERK in NCI-H358 (G12C) cells; experiment: as above; assay type: cell-based; conditions: Homo sapiens, 3 hours compound, phospho-ERK normalized to GAPDH
Outline: as §1

[7] = test system: phospho-ERK in A549 (G12S) cells; experiment: as above; assay type: cell-based; conditions: Homo sapiens, 3 hours compound, phospho-ERK normalized to GAPDH
Outline: as §1

[8] = test system: phospho-ERK in NCI-H727 (G12V) cells; experiment: as above; assay type: cell-based; conditions: 3 hours compound, phospho-ERK normalized to GAPDH
Outline: as §1

[9] = test system: phospho-ERK in AsPC-1 (G12D) cells; experiment: as above; assay type: cell-based; conditions: 3 hours compound, phospho-ERK normalized to GAPDH
Outline: as §1

[10] = test system: phospho-ERK in NCI-H460 (Q61H) cells; experiment: as above; assay type: cell-based; conditions: 3 hours compound, phospho-ERK normalized to GAPDH
Outline: as §1

[11] = biological target: KRas G12R (Homo sapiens, UniProt P01116, G12R); experiment: biochemical;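 further: TR-FRET displacement assay of compound binding to KRas, read after one hour at room temperature, potency from a four-parameter fit of percent-of-control values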
Procedure: as §2

[12] = biological target: KRas G12A (Homo sapiens, UniProt P01116, G12A); experiment: biochemical;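 further: binding to KRas measured by TR-FRET displacement after one hour at room temperature, IC50 from a four-parameter fit of percent-of-control values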
Procedure: as §2

[13] = biological target: KRas WT (Homo sapiens, UniProt P01116); experiment: biochemical;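 further: binding to KRas read as TR-FRET displacement after a one-hour room-temperature incubation, IC50 derived from percent-of-control values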
Procedure: as §2

[14] = biological target: KRas G12C (Homo sapiens, UniProt P01116, G12C); experiment: biochemical;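 further: binding to KRas assessed by TR-FRET displacement after one hour incubation at room temperature, potency fitted from percent-of-control values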
Procedure: as §2

[15] = biological target: T1, KRas Q61H (Homo sapiens, UniProt P01116, Q61H); experiment: KRas binding assay (TR-FRET displacement);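 further: TR-FRET signal read after one hour at room temperature, IC50 derived by four-parameter fitting of percent-of-control values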
T1 construct: Biotinylated KRas (corresponding to amino acids 1-169, produced at Accelegan Inc.); biotin (biotinylated); purchased Accelegan Inc
Procedure: as §2

[16] = biological target: T2, KRas G13D (Homo sapiens, UniProt P01116, G13D); experiment: KRas binding assay (TR-FRET displacement);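 further: One-hour room temperature incubation before TR-FRET reading, IC50 from a four-parameter curve fit to percent-of-control data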
T2 construct: Biotinylated KRas (corresponding to amino acids 1-169, produced at Accelegan Inc.); biotin (biotinylated); purchased Accelegan Inc
Procedure: as §2

[17] = biological target: KRas G12S (Homo sapiens, UniProt P01116, G12S); experiment: biochemical;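 further: TR-FRET displacement binding to KRas, read after one hour incubation at room temperature, IC50 from four-parameter fit of percent of control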
Sequence of KRas G12S (P01116 1-169 isoform P01116-2 G12S): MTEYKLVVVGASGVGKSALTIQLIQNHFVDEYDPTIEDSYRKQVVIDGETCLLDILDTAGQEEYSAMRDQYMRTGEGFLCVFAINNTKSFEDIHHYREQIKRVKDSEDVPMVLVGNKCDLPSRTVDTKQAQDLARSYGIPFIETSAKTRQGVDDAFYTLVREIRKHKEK
Procedure: as §2

Sequence of KRas G12D (P01116 1-169 isoform P01116-2 G12D): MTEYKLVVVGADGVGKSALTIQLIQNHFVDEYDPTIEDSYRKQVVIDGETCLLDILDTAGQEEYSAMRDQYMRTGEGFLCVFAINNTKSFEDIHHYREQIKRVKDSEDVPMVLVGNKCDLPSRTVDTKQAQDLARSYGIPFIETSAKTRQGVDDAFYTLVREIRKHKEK
Sequence of KRas G12R (P01116 1-169 isoform P01116-2 G12R): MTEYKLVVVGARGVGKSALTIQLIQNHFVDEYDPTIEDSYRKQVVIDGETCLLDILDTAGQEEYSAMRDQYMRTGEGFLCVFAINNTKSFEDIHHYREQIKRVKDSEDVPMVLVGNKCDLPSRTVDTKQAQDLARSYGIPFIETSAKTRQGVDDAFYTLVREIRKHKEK
Sequence of KRas G12V (P01116 1-169 isoform P01116-2 G12V): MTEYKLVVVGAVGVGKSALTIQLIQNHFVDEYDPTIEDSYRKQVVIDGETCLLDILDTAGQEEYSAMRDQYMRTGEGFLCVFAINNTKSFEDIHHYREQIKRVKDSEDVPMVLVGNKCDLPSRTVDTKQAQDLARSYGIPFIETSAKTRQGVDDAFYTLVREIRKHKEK
T2 sequence (P01116 1-169 isoform P01116-2 G13D): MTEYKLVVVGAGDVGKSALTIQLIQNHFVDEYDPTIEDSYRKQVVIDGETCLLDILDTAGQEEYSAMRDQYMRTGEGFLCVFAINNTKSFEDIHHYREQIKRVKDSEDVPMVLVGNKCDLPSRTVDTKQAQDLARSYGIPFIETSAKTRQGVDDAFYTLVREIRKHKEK
T1 sequence (P01116 1-169 isoform P01116-2 Q61H): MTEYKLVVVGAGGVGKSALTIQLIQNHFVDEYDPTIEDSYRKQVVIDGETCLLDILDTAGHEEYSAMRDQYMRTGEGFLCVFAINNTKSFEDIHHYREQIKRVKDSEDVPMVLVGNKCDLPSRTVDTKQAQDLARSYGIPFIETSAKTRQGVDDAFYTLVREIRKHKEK
Sequence of KRas G12C (P01116 1-169 isoform P01116-2 G12C): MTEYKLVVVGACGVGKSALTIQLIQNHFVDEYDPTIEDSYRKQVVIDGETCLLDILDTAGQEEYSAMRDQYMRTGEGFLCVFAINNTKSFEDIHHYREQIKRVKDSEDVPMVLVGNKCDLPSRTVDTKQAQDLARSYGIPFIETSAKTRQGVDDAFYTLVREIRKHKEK
Sequence of KRas G12A (P01116 1-169 isoform P01116-2 G12A): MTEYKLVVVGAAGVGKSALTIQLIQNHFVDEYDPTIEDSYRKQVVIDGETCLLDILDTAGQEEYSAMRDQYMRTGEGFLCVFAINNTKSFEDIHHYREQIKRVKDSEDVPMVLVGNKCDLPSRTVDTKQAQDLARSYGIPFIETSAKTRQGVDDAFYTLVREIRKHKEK
Sequence of KRas WT (P01116 1-169 isoform P01116-2): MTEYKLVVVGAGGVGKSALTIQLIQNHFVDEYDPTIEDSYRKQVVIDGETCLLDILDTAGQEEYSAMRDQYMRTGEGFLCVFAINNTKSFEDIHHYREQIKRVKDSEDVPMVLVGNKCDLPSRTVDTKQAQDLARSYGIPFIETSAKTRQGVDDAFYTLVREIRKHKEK

Row | SMILES | IC50 [1] [nM] | IC50 [2] [nM] | IC50 [11] [nM] | IC50 [12] [nM] | IC50 [13] [nM] | IC50 [14] [nM] | IC50 [15] [nM] | IC50 [16] [nM] | IC50 [17] [nM] | IC50 [3] [nM] | IC50 [4] [nM] | IC50 [5] [nM] | IC50 [6] [nM] | IC50 [7] [nM] | IC50 ([8]; Homo sapiens, NCI-H727, 3 h) [nM] | IC50 ([9]; Homo sapiens, ASPC1, 3 h) [nM] | IC50 ([10]; Homo sapiens, NCI-H460, 3 h) [nM] | IC50 [8] [nM] | IC50 [9] [nM] | IC50 [10] [nM]
1 | CCc1c(F)ccc2cc(O)cc(-c3ncc4c(N5C[C@H](O)C[C@@H](O)C5)nc(OC[C@@]56CCCN5C[C@H](F)C6)nc4c3F)c12 [Example 59] | ≤ 2 | ≤ 2 | ≤ 2 |  |  |  |  |  |  | 1270 | ≥ 10000 | 107 | 176 | 3560 |  |  |  | 769 | 577 | 296
2 | C#Cc1c(F)ccc2cccc(-c3ncc4c(N5CCCC6(CNC(=O)C6)C5)nc(OC[C@@]56CCCN5C[C@H](F)C6)nc4c3F)c12 (stereo partly drawn) [Example 36, 7-(7-(8-ethynyl-7-fluoronaphthalen-1-yl)-8-fluoro-2-(((2R,7aS)-2-fluorohexahydro-1H-pyrrolizin-7a-yl)methoxy)pyrido[4,3-d]pyrimidin-4-yl)-2,7-diazaspiro[4.5]decan-3-one] | 20 | 9 | 24 |  |  |  |  |  |  | 1610 | ≥ 10000 | 1180 | 1130 | 2150 | 3390 | 1540 | 557 |  |  | 
3 | CCc1c(F)ccc2cc(O)cc(-c3ncc4c(NCc5c[nH]c6ncccc56)nc(OC[C@@]56CCCN5C[C@H](F)C6)nc4c3F)c12 [62.] |  |  |  |  |  |  |  |  |  | 410 | ≥ 10000 | 7 | 24 | 87 | 178 | 591 | 154 |  |  | 
4 | CCc1c(F)ccc2cc(O)cc(-c3ncc4c(N5CCC6(CC5)CC(=O)N6)nc(OC[C@@]56CCCN5C[C@H](F)C6)nc4c3F)c12 [Example 73] | ≤ 2 | 5 | ≤ 2 |  |  |  |  |  |  | 128 | ≥ 10000 | 23 | 98 | 191 | 756 | 3490 | 176 |  |  | 
5 | CCc1c(F)ccc2cc(O)cc(-c3ncc4c(OCCCc5cccnc5)nc(OC[C@@]56CCCN5C[C@H](F)C6)nc4c3F)c12 [Example 298, 5-ethyl-6-fluoro-4-(8-fluoro-2-(((2R,7aS)-2-fluorohexahydro-1H-pyrrolizin-7a-yl)methoxy)-4-(3-(pyridin-3-yl)propoxy)pyrido[4,3-d]pyrimidin-7-yl)naphthalen-2-ol] | 133 | 1520 | 99 |  |  |  |  |  |  | ≥ 10000 | ≥ 10000 | 2710 | 5010 | ≥ 10000 | ≥ 10000 | ≥ 10000 | ≥ 10000 |  |  | 
6 | CCc1c(F)ccc2cc(O)cc(-c3ncc4c(N5CC(n6ccnc6)C5)nc(OC[C@@]56CCCN5C[C@H](F)C6)nc4c3F)c12 [Example 134, 4-(4-(3-(1H-imidazol-1-yl)azetidin-1-yl)-8-fluoro-2-(((2R,7aS)-2-fluorohexahydro-1H-pyrrolizin-7a-yl)methoxy)pyrido[4,3-d]pyrimidin-7-yl)-5-ethyl-6-fluoronaphthalen-2-ol] |  |  |  |  |  |  |  |  |  | ≥ 10000 | ≥ 10000 | 178 | 48 | 1490 | ≥ 10000 | ≥ 10000 | 666 |  |  | 
7 | C[C@@]1(O)CCCN(c2nc(OC[C@@]34CCCN3C[C@H](F)C4)nc3c(F)c(-c4c5ccccc5cc5[nH]ncc45)ncc23)C1 [Example 154, (3R)-1-(7-(1H-benzo[f]indazol-4-yl)-8-fluoro-2-(((2R,7aS)-2-fluorohexahydro-1H-pyrrolizin-7a-yl)methoxy)pyrido[4,3-d]pyrimidin-4-yl)-3-methylpiperidin-3-ol] | 28 | 33 | 66 | 42 | 54 | 43 | 53 | 34 | 43 | 1460 | ≥ 10000 |  | 840 | 8450 | ≥ 10000 |  |  |  |  | 

Now from value to compound, other results behind:

Row | IC50 [1] [nM] | IC50 [2] [nM] | IC50 [11] [nM] | IC50 [12] [nM] | IC50 [13] [nM] | IC50 [14] [nM] | IC50 [15] [nM] | IC50 [16] [nM] | IC50 [17] [nM] | SMILES | IC50 [3] [nM] | IC50 [4] [nM] | IC50 [5] [nM] | IC50 [6] [nM] | IC50 [7] [nM] | IC50 ([8]; Homo sapiens, NCI-H727, 3 h) [nM] | IC50 ([9]; Homo sapiens, ASPC1, 3 h) [nM] | IC50 ([10]; Homo sapiens, NCI-H460, 3 h) [nM] | IC50 [8] [nM] | IC50 [9] [nM] | IC50 [10] [nM]
8 | ≤ 2 | 8 | ≤ 2 |  |  |  |  |  |  | CCc1c(F)ccc2cc(O)cc(-c3ncc4c(NCc5ccc6[nH]cnc6c5)nc(OC[C@@]56CCCN5C[C@H](F)C6)nc4c3F)c12 [Example 139, 4-(4-(((1H-benzo[d]imidazol-5-yl)methyl)amino)-8-fluoro-2-(((2R,7aS)-2-fluorohexahydro-1H-pyrrolizin-7a-yl)methoxy)pyrido[4,3-d]pyrimidin-7-yl)-5-ethyl-6-fluoronaphthalen-2-ol] | ≥ 10000 | ≥ 10000 | 307 | 115 | ≥ 10000 | ≥ 10000 | ≥ 10000 | 7510 |  |  | 
9 | 3 | 28 | 3 |  |  |  |  |  |  | CCc1c(F)ccc2cc(O)cc(-c3ncc4c(NCc5c[nH]cn5)nc(OC[C@@]56CCCN5C[C@H](F)C6)nc4c3F)c12 [Example 164, 4-(4-(((1H-imidazol-4-yl)methyl)amino)-8-fluoro-2-(((2R,7aS)-2-fluorohexahydro-1H-pyrrolizin-7a-yl)methoxy)pyrido[4,3-d]pyrimidin-7-yl)-5-ethyl-6-fluoronaphthalen-2-ol] | ≥ 10000 | ≥ 10000 | 207 | 602 | ≥ 10000 | ≥ 10000 | ≥ 10000 | 6820 |  |  | 
10 | ≤ 2 | 12 | ≤ 2 |  |  |  |  |  |  | CCc1c(F)ccc2cc(O)cc(-c3ncc4c(NCCc5c[nH]c6ncccc56)nc(OC[C@@]56CCCN5C[C@H](F)C6)nc4c3F)c12 [Example 157, 4-(4-((2-(1H-pyrrolo[2,3-b]pyridin-3-yl)ethyl)amino)-8-fluoro-2-(((2R,7aS)-2-fluorohexahydro-1H-pyrrolizin-7a-yl)methoxy)pyrido[4,3-d]pyrimidin-7-yl)-5-ethyl-6-fluoronaphthalen-2-ol] | 893 | ≥ 10000 | 31 | 31 | 448 | 4720 | 751 | 585 |  |  | 
11 | ≤ 2 | 4 | ≤ 2 |  |  |  |  |  |  | CCc1c(F)ccc2cc(O)cc(-c3ncc4c(NCc5ccc(=O)[nH]c5)nc(OC[C@@]56CCCN5C[C@H](F)C6)nc4c3F)c12 [Example 143] | ≥ 10000 | ≥ 10000 | 300 | 527 | ≥ 10000 | ≥ 10000 | ≥ 10000 | ≥ 10000 |  |  | 
12 | ≤ 2 | ≤ 2 | ≤ 2 |  |  |  |  |  |  | CCc1c(F)ccc2cc(O)cc(-c3ncc4c(NCC5CNC(=O)C5)nc(OC[C@@]56CCCN5C[C@H](F)C6)nc4c3F)c12 (some centres unmarked) [Example 60] | 3600 | ≥ 10000 | 230 | 389 | 5530 | 1260 | 3890 | 1030 |  |  | 
13 | 3 | 39 | 5 |  |  |  |  |  |  | CCc1c(F)ccc2cc(O)cc(-c3ncc4c(NCc5cc[nH]n5)nc(OC[C@@]56CCCN5C[C@H](F)C6)nc4c3F)c12 [Example 159, 4-(4-(((1H-pyrazol-3-yl)methyl)amino)-8-fluoro-2-(((2R,7aS)-2-fluorohexahydro-1H-pyrrolizin-7a-yl)methoxy)pyrido[4,3-d]pyrimidin-7-yl)-5-ethyl-6-fluoronaphthalen-2-ol] | 2110 | ≥ 10000 | 133 | 139 | 4070 | 2000 | ≥ 10000 | 1510 |  |  | 
